Laboratory results published in publication PMC7318243, “Computationally Empowered Workflow Identifies Novel Covalent Allosteric Binders for KRAS^G12C” (Chemmedchem, 2020).

How the values were obtained:
[1] = target: T1, KRAS^G12C (Homo sapiens, UniProt P01116, C118S/C51S/C80L/G12C); test: Determination of kinact and KI by LC-MS occupancy over time; assay type: binding; settings: for k inact (maximum potential rate of KRAS^G12C inactivation) / Ki: 10 µM KRAS^G12C, 10-100 µM inhibitor, 0-180 min; for Ki: read-out: K I (binding constant of the reversible binding event)
T1 construct: made in house
Method: (§1) 3.4 Covalent binding assay by mass spectrometry
(§2) The percentage of covalent adduct formation at KRAS G12C was determined by intact mass determination. To this end, 25 µM recombinant KRAS mutant (G12C , C51S, C80L, C118S) was incubated with 25 µM compound (1% v/v DMSO final concentration) in 50 mM Tris, pH 8.0, 50 mM NaCl at room temperature for 2 h. Reaction mixture (20 µL) was acidified by addi tion of 4% v/v TFA (4 µL). LC-MS analysis was performed using a Waters SYNAPT G2 -S quadrupole time -of-flight mass spectrometer connected to a Waters nanoA CQUITY UPLC system. Samples were loaded onto a 2.1 × 5 mm MassPrep C4 guard column (Waters) and desalted with a short gradient (3 min) of increasing concentration of acetonitrile at a flow rate of 100 µL/min. Spectra were analyzed by using MassLynx v4.1 software and deconvoluted with the MaxEnt1 algorithm. Percent conversion was determined by the ratio of signal intensities of […] and KRASG12C + inhibitor. […]
3.6 Determination of k inact and KI
The percentage of covalent adduct formation at KRASG12C was determined for compounds 1, 2 and 13 by intact mass determination. To this end, 25 µM of the same recombinant KRAS mutant as for the covalent binding assay (G12C, C51S, C80L, C118S) were incubated with 25 µM of compound (1% v/v final DMSO concentration) in 50 mM Tris, pH8, 50 mM NaCl at room temperature for 2 h. The reaction was acidified by adding 4 µL of 4% v/v TFA to 20 µL reaction […]
(§3) Liquid chromatography-mass spectrometry (LC-MS) analysis was performed using a Waters SYNAPT G2-S quadrupole time-of-flight mass spectrometer connected to a Waters nanoAcquity UPLC system. Samples were loaded on a 2.1 x 5 mm mass prep C4 guard column (Waters) and desalted with a short grad ient (3 min) of increasing concentrations of acetonitrile at a flow rate of 100 µL/min. Spectra were analyzed by using MassLynx v4.1 software and deconvoluted with the MaxEnt1 algorithm. Percent of conversion was determined by the ratio of signal intensiti es of apo-KRAS and KRAS + inhibitor.
The kinact / KI ratio was determined by measuring the total occupancy (% conversion) over time at different inhibitor concentrations. In detail, 10 µM KRASG12C were incubated in the same reaction buffer as above with 10 µM, 25 µM, 50 µM or 100 µM of inhibitor at different reaction times (0, 2, 20, 60 and 180 min), the reaction was quenched by adding 2 µL of 4% v/v TFA to 10 µL reaction volume and subsequently measured by LC -MS as described above. The observed occupancy percentage over time at a given inhibitor concentration was fit to the following equation using […]
% conversion = vi [1 − exp(−k ∗ t)]
The obtained kobs values were then plotted as a function of inhibitor concentration and fit to the […]
to yield the kinact and KI.[26]

[2] = target: T2, KRAS^G12C (recombinant KRAS mutant G12C, C51S, C80L, C118S) (Homo sapiens, UniProt P01116, C118S/C51S/C80L/G12C); test: Covalent binding assay by mass spectrometry (intact mass, % covalent adduct); settings: 25 µM protein, 25 µM compound, room temperature, 2 h
T2 construct: made in house
Method: (§4) One of the most synthetically accessible compounds, 1,6‐naphthyridin‐5(6H)‐one (1), was prepared (Table 1; Scheme S1). Structurally close to 1, isoquinolin‐1(2H)‐one 2 derivatives were also considered for the exploration of structure‐activity relationships (SAR). To measure the proportion of inhibitor reacting with Cys12 of the KRAS^G12C mutant, the bound/unbound protein ratio was quantified by mass spectrometry (MS). Then, the inhibition potency of these compounds towards KRAS^G12C was evaluated in biochemical assays measuring the activation of GDP‐bound KRAS^G12C or KRAS^WT by SOS1.19 […]
as §1, §2

[3] = target: T3, KRAS^WT (Homo sapiens, UniProt P01116); test: Biochemical assay: KRAS^WT activation by SOS1CAT (HTRF, fluorescent GTP loading); settings: 180 min pre-incubation with KRAS before addition of SOS1
T3 construct: The proteins KRASWT (aa 1–169, wild type), SOS1CAT (aa 564–); made in house
Method: as §4
3.3 Biochemical activity assays
Measurement of (i) KRASG12C activation by SOS1CAT and (ii) wild-type KRAS activation by SOS1CAT was performed following the previously described protocol, [19] with a pre-incubation time of the test compound with KRAS proteins extended to 180 min before addi tion of SOS1.
This assay quantifies SOS1 CAT mediated loading of KRAS G12C–GDP with a fluorescent GTP analogue. Detection of successful loading was achieved by measuring resonance energy transfer from anti-GST-terbium (FRET donor) bound to GST -KRASG12C to the loaded fluorescent GTP analogue (FRET acceptor). The fluorescent GTP analogue EDA –GTP–DY-647P1 [2'/3'-O-(2-aminoethyl-carbamoyl)guanosine-5'-triphosphate labelled with DY-647P1 (Dyomics GmbH, Germany)] was synthesized by Jena Bioscience (Germany) a nd supplied as a 1 mM aqueous solution. A KRASG12C working solution was prepared in assay buffer [10 mM HEPES pH 7.4 (AppliChem), 150 mM NaCl (Sigma), 5 mM MgCl2 (Sigma), 1 mM DTT (Thermo Fisher), 0.05% BSA Fraction V pH 7.0 (ICN Biomedicals), 0.0025% (v/v) Igepal (Sigma)] containing 100 nM GST-KRASG12C and 2 nM anti-GST-terbium (Cisbio, France). A SOS1 CAT working solution was prepared in an assay buffer containing 20 nM SOS1CAT and 200 nM EDA–GTP–DY-647P1. An inhibitor control solution was prepared in an assay buffer containing 200 nM EDA–GTP–DY-647P1 without […]
SOS1CAT. All steps of the assay were performed at 20 °C. A volume of 2.5 µL of the KRASG12C working solution was added to all wells of the test plate using a Multidrop dispenser (Thermo LabSystems). After 180 min, 2.5 µL of the SOS1CAT working solution was added to all wells, except for the inhibitor control solution wells. After 30 min incubation, HTRF was measured.
In the KRASWT activation by SOS1cat assay, human SOS1CAT mediated loading of GST-KRASWT– GDP was quantified with a fluorescent GTP analogue. The assay was performed as described above for the KRASG12C activation. […]
as §3, with “SYNAPT” for “Liquid chromatography-mass spectrometry (LC-MS) analysis was performed using a Waters SYNAPT”

Compound | k inact/K I [1] [M⁻¹ s⁻¹] | k inact (maximum potential rate of KRAS^G12C inactivation) [1] [s⁻¹] | Ki [1] [µM] | MS assay [% binding] (KRAS^G12C bound fraction) [2] [%] | IC50 [3] [µM]
C=CC(=O)N1CCC(c2cc3ncc(-c4c(O)cccc4F)cc3c(=O)[nH]2)C1 (stereo not drawn) [Compound 1, 3-(2-Fluoro-6-hydroxyphenyl)-7-[1-(prop-2-enoyl)pyrrolidin-3-yl]-1,6-naphthyridin-5(6H)-one] | 26.72 | 0.00105 | 39.3 | 80 | > 20
C=CC(=O)N1CCC(c2cc3ccc(-c4c(O)cccc4F)cc3c(=O)[nH]2)C1 (stereo not drawn) [Compound 2, 7-(2-Fluoro-6-hydroxyphenyl)-3-[1-(prop-2-enoyl)pyrrolidin-3-yl]isoquinolin-1(2H)-one] | 55.05 | 0.00024 | 4.4 | 35 | > 20
C=CC(=O)N1CCC(c2cc3cnc(-c4c(O)cccc4F)cc3c(=O)[nH]2)C1 (stereo not drawn) [Compound 13, 7-(2-Fluoro-6-hydroxyphenyl)-3-[1-(prop-2-enoyl)pyrrolidin-3-yl]-2,6-naphthyridin-1(2H)-one] | 49.38 | 0.00159 | 32.2 | 73 | > 20
